{
  "source": "patent US10597352B1",
  "about": "“Stable alkyl benzidine composition and methods of making and using same” (OneStep Technologies Inc., priority 2019, dated 2020)",
  "assay": "Stability evaluation of alkyl benzidine solutions on storage at a stated temperature (method not described)",
  "format": "physicochemical",
  "experimental": "In one example, a solution of TMB prepared in polyethylene glycol in accordance with Example 1.0 was evaluated for stability. It was determined that the solution was stable at room temperature (i.e. 22° C.) for a period of at least two years. It was further determined that the solution was stable at 37° C. for a period of at least two months.",
  "data": [
    {"molecule": "Cc1cc(-c2cc(C)c(NCCCS(=O)(=O)O)c(C)c2)cc(C)c1N", "note": "[N-(3-sulfopropyl)-3,3′,5,5′-tetramethylbenzidine]", "values": [
      {"measurement": "stability of compositions produced with the tetraalkyl benzidine compound (in words)", "value": "stable compositions"}
    ]}
  ]
}
